PMC4413647, “Simultaneous targeting of androgen receptor (AR) and MAPK-interacting kinases (MNKs) by novel retinamides inhibits growth of human prostate cancer cell lines” (Oncotarget, 2014)
Like-named read-outs stand apart in the source and are kept apart here.

What was measured:
C4-2B cells = experiment: MTT cell proliferation assay, 7 d, C4-2B; type: cell-based; settings: Homo sapiens, 168 h, 7 d treatment
Source text: (§1) Androgen-dependent (LNCaP), androgen-independent (PC-3) and castration resistant (C4-2B and 22Rv1) human prostate carcinoma cells were procured from American Type Culture Collection, Manassas, VA, USA and maintained in RPMI 1640 media (Gibco-Life Technologies, Grand Island, NY, USA) supplemented with 10% fetal bovine serum and 1% penicillin/streptomycin. […] Immortalized untransformed prostate epithelial cells, PWR1E from American Type Culture Collection were maintained in serum-free Keratinocyte media (Gibco) supplemented with epidermal growth factor and bovine pituitary extract. All cell lines were maintained in a 37 °C/5% CO2 humidified atmosphere.
(§2) Cell proliferation assay was performed as described previously. For cell growth experiment, cells were treated with the NRs for 7 days. MTT assay was performed at the end of the experiment. Calculations of combination indices were done using the Calcusyn program (Biosoft, Cambridge, United Kingdom). For colony formation assay, cells were plated 1000 per well in complete media and allowed to adhere for 24 h. The next day cells were treated with indicated compounds (5 μM). After 24 h compound containing media were removed, and cells were allowed to form colonies in complete media. Approximately 2 weeks later the colonies were fixed, stained with 0.5% crystal violet (sigma) for 30 min and counted manually. Results represent the mean ± standard deviation of three independent experiments.

fAR, MNK1, MNK2, peIF4E = experiment: Western blot of fAR, MNK1, MNK2, peIF4E in VNLG-152 treated LNCaP cells; type: cell-based, human
Description: Figure 6 Effect of siAR, siMNK1 on LNCaP cell viability, and VNLG-152 on key and downstream proteins in LNCaP cells (A) Western blot analysis of the expression of fAR, MNK1 and peIF4E in LNCaP cells transfected with 100 nM of siAR, siMNK1 and combinations for 18 h. (B) Effect of VNLG-152 (5 μmol) on cell proliferation in LNCaP cells transfected with siAR, siMNK1 and combinations as determined by MTT assay. The results represent the mean ± SEM of three independent experiments and are represented as a bar graph after normalizing to control cells. *, P< 0.05; ♣, P<0.01 compared with vehicle treated control. (C) Dose-dependent effect of VNLG-152 on the expression of AR, MNKs, peIF4E and downstream target proteins. Total cell lysate from LNCaP cells treated with VNLG-152 (0 - 20 μmol/L) for 24 h were separated by SDS-PAGE and probed with corresponding antibodies. Vehicle treated cells were included as control and all blots were reprobed for β-actin to ensure equal protein loading.
Figure 7 VNLG-152 induced AR degradation by ubiquitin proteasomal pathway in LNCaP cells (A) Western blot analysis of the expression of fAR in LNCaP cells treated with VNLG-152 (20 μmol/L) in the presence or absence of CHX (10 μmol/L) at 6, 12 and 24 h of treatment. (B) Densitometric analysis of the expression of fAR in different groups *, P< 0.05; ♣, P<0.01 compared with vehicle treated control. (C) Western blot analysis of the expression of fAR in LNCaP cells treated with VNLG-152 (20 μmol/L) in the presence or absence of MG-132 (5 μmol/L). (D) LNCaP cells were treated with 20 μmol/L of VNLG-152, 5 μmol/L of MG-132, and combinations for 24 h. AR protein was immunoprecipitated with AR antibody (mouse) and the precipitated protein was subjected to western blot analysis with anti-ubiquitin antibody (Ub) ([…]). The same blot was used to detect AR protein with anti-AR (rabbit) antibody after stripping (C, lower panel). […]

PC-3 cells = experiment: Wound healing migration assay; type: cell-based, human; settings: 5 μM, 24 h
Description: Figure 5 Anti-migratory and anti-invasive potential of NRs (A) Effect of NRs treatment (5 μmol/L) on PC-3 cell migration was assessed by wound healing assay after 24 h of wound formation. Representative photomicrographs of initial and final wounds are shown at 100x magnification. (B) Effect of NRs on PC-3 cell invasion was evaluated by transwell migration assay. PC-3 cells were seeded on matrigel coated boyden chamber and treated with NRs (5 μmol/L, 24 h). Photographs represent the extent of cell invasion in each of the treated cells. (C) Western blot analysis of the effect of NRs on the expression of cadherins in PC-3 cells. Cells were treated with indicated compound 20 μmol/L for 24 h. […] For wound healing assay highly metastatic PC-3 cells were plated in a 24 well plate at a seeding density of 5 × 10^5 cells/ well and allowed to form a confluent monolayer for 24 h. Cells were made dormant by pretreating with 0.5 μmol/L mitomycin C for 2 h to ensure that wounds are filled due to cell migration and not by cell proliferation. Subsequently, the monolayer was scratched with a pipette tip, washed with media to remove floating cells, and photographed (time 0 h). Cells were then treated with indicated compounds (5 μM) and the experiment was terminated as soon as wound was completely filled in vehicle treated controls. Cells were then photographed again using Nikon TE2000 microscope at three randomly selected sites per well [43].

LNCaP cells = experiment: MTT cell proliferation assay, 7 d, LNCaP; type: cell-based, human; settings: 7 d treatment
Source text: as §1, §2

GI50 (LNCaP cells; read-out: GI50 LNCaP): 2450 nM | GI50 (LNCaP cells; Homo sapiens, LNCaP, 168 h, read-out: GI50 LNCaP): 2500 nM | GI50 (LNCaP cells; Homo sapiens, LNCaP, 168 h, DHT induced, read-out: GI50 LNCaP, DHT induced): 1860 nM
Structure (SMILES): CC1=C(/C=C/C(C)=C/C=C/C(C)=C/C(=O)Nc2ccc(F)cc2)C(C)(C)CCC1n1ccnc1 (racemic) [VNLG-152]
GI50 (C4-2B cells): 1540 nM | time by which AR and MNK (MNK1 and MNK2) were profoundly reduced (fAR, MNK1, MNK2, peIF4E; 20 μmol/L): ≤ 12 h | concentration of maximal effect on MNK2 expression (fAR, MNK1, MNK2, peIF4E; 0.6-20 μM, 24 h): 20 µM | concentration with notable decrease in expression of fAR, MNK1 and peIF4E (fAR, MNK1, MNK2, peIF4E; 0.6-20 μM, 24 h): ≥ 2.5 µM | PC-3 cell migration to the denuded zone (PC-3 cells): potentially suppressed
